How the values were obtained:
[1] = molecular target: T1, cytosolic aminopeptidase (cAAP) purified from Jurkat cells (Homo sapiens, UniProt P55786); assay: Inhibition of enzymatic activity of cytosolic aminopeptidase (cAAP); type: biochemical; conditions: highest test item concentration 25 μM
T1 construct: The cytosolic aminopeptidase (cAAP) was purified from Jurkat cells; endogenous in cells; host or cells: Jurkat cells (enzyme purified from them)

NHEK cells = assay: Inhibition of DNA synthesis and proliferation of normal human epidermal keratinocytes (NHEK); type: cell-based; conditions: Homo sapiens, NHEK, 48 h, EGF-stimulated NHEK, BrdU incorporation, read-out: Supp. DNA Synt. NHEK IC50
Outline: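 Primary human keratinocytes were grown 48 h in serum-free medium with EGF and pituitary extract, with compounds at 0.1–100 μM. DNA synthesis was measured by BrdU incorporation ELISA relative to untreated controls (100%), and IC50 was derived graphically.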

T lymphocytes (T cells) = assay: Suppression of DNA synthesis of PHA-stimulated T lymphocytes; type: cell-based; conditions: Homo sapiens, T-cell, 48 h, tritium thymidine incorporation, read-out: Supp. DNA Synt. T-cell IC50
Outline: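 Healthy-donor PBMC and nylon-wool-purified T cells in serum-free AIMV medium were stimulated 48 h with 1 µg/ml PHA, with compound (0.1–250 µM) present throughout. IC50 was estimated graphically from proliferation relative to PHA-activated T cells without compound.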

[2] = test system: purified, recombinant DP8 and DP9; assay: Inhibition of enzymatic activity of DP8/9; type: biochemical; conditions: highest test item concentration 25 μM
Outline: (§1)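 Recombinant human DPIV (Sf9-derived, approx. 1 nM) and recombinant DP8/DP9 in 0.05M Tris/HCl pH 7.5 with 0.05% Triton, 0.05% BSA, 2 mM MgCl2. Substrates were Gly-Pro-AMC at 50 μM (ex 380/em 460 nm, read at 0–120 min) or (Ala-Pro)2-R110 at 1 μM (ex 488/em 530 nm). IC50 from ≥16 log2 dilutions, top 25 μM.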

[3] = molecular target: T2, aminopeptidase N (APN), purified recombinant human enzyme (Homo sapiens, UniProt P15144); assay: Inhibition of enzymatic activity of aminopeptidase N (fluorogenic substrate hydrolysis); type: biochemical; conditions: highest test item concentration 25 μM
T2 construct: made in house; host or cells: ECV cells (transfected)
T2 sequence (P15144 whole entry): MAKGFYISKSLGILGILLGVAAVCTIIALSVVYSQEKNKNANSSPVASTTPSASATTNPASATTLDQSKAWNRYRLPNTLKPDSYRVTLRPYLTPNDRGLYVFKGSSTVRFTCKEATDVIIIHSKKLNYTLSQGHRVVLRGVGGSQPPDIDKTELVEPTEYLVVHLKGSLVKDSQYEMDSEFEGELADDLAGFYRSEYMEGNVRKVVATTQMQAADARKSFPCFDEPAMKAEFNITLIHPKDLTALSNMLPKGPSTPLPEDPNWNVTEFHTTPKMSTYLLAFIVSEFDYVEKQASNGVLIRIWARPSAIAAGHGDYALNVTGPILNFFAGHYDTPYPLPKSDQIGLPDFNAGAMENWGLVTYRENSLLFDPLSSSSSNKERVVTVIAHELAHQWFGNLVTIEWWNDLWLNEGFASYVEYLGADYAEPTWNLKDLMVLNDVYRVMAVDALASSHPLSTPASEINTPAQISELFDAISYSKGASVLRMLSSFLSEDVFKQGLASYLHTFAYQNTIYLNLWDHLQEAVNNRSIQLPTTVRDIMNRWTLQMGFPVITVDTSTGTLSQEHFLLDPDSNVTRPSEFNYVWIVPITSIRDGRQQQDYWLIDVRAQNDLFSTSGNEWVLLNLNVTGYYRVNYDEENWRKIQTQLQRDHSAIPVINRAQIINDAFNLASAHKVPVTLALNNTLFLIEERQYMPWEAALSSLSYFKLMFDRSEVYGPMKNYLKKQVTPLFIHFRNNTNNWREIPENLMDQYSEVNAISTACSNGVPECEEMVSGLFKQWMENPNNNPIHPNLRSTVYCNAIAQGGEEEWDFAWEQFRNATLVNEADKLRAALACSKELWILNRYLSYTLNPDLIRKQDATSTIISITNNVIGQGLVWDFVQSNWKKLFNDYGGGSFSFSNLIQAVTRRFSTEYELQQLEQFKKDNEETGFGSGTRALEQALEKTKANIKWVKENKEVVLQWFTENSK
Outline: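 Recombinant human APN from transfected ECV cells was used at approx. 1 nM final, in 0.05M TRIS/HCl pH 7.5 with 0.05% Triton, 0.05% BSA and 2 mM MgCl2. Fluorescence release was read from H-Ala-AMC (50 μM) or (Ala-)2-R110 (1 μM). IC50 values came from at least 16 log2 dilutions starting at 25 μM top concentration.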

[4] = molecular target: T3, purified, recombinant human DPIV (Homo sapiens, UniProt P27487); assay: Inhibition of enzymatic activity of DPIV (fluorogenic substrate hydrolysis); type: biochemical; conditions: highest test item concentration 25 μM
T3 construct: made in house; host or cells: Sf9 insect cells
T3 sequence (P27487 whole entry): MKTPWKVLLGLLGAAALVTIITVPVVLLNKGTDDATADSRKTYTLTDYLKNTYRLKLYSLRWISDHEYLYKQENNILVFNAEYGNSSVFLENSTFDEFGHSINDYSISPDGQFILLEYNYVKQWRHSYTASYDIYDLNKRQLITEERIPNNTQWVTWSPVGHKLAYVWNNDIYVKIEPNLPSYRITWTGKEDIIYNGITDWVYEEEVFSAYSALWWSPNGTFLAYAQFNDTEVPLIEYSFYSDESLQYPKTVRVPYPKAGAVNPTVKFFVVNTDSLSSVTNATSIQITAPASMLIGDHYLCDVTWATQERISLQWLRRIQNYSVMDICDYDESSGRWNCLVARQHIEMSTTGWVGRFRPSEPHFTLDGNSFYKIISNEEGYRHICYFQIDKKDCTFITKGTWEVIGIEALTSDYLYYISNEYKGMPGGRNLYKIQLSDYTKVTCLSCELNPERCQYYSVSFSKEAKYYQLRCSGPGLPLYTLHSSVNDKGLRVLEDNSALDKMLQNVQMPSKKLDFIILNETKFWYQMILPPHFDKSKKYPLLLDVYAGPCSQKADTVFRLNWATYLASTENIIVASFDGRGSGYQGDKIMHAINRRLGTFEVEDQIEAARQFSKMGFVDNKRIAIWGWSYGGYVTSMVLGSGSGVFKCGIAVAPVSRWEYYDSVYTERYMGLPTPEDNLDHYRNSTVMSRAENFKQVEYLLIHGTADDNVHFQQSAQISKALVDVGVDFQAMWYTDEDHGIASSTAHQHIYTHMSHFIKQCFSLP
Outline: as §1

SZ95 cells = assay: Inhibition of DNA synthesis and proliferation of immortalized human sebocytes SZ95; type: cell-based; conditions: Homo sapiens, EGF-stimulated SZ95 sebocytes, tritium thymidine incorporation; read-out: Supp. DNA Synt. SZ95 IC50
Outline: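 EGF-stimulated SZ95 sebocytes in serum-free Sebomed Complete, treated with test items at 0.1–100 μM. DNA synthesis read by 3H-thymidine incorporation (beta counting), expressed relative to untreated cells (100%). IC50 for proliferation suppression derived graphically.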

T1 sequence (P55786 whole entry): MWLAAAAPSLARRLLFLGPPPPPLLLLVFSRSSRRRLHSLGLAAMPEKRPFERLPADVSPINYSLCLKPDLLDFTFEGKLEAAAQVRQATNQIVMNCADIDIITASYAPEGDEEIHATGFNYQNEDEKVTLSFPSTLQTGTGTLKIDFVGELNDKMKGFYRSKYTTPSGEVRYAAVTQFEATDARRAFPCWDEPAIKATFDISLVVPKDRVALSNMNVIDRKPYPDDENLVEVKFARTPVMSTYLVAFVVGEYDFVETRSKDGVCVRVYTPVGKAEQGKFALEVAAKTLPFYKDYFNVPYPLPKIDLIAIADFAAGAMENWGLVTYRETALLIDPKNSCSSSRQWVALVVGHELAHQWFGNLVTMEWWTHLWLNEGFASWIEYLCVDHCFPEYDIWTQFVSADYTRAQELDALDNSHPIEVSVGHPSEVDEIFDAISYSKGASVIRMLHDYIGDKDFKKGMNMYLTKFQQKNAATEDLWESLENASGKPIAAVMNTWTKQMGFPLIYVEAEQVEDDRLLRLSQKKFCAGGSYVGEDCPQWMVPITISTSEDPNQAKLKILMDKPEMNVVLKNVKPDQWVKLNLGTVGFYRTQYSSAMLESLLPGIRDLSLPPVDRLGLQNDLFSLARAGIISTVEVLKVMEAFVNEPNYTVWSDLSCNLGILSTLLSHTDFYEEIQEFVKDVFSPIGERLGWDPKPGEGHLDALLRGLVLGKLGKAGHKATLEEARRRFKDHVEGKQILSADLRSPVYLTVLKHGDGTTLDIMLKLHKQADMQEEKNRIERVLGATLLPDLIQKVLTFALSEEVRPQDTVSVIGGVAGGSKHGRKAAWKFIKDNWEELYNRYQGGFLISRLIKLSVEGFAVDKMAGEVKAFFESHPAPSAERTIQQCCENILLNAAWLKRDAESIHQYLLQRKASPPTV

CC(C)[C@@H]1CC[C@@H](C)CC1OC(=O)CC(Cc1cc(F)ccc1F)NC(=O)OC(C)(C)C (stereo partly shown) [Compound C-122]
meas. IC50 (cAAP) [1]: no in- hibition | IC50 (NHEK cells): 69.4 µM | IC50 (T lymphocytes (T cells)): 5.83 µM | meas. IC50 (DP8/9) [2]: no in- hibition | meas. IC50 (APN) [3]: no in- hibition | meas. IC50 (DPIV) [4]: no in- hibition | IC50 (SZ95 cells): 65.2 µM
